In patent US20260263485A1, “AMINOSTEROL COMPOUNDS, AMINOSTEROL-CYCLODEXTRIN FORMULATIONS, AND METHODS OF USING THE SAME” (Enterin, Inc., priority 2022, published 2026):
Values joined by “and” are separate entries in the source; they are usually repeats but may differ in a detail not shown here. Identical values can stand only once. Like-named read-outs stand apart in the source and are kept apart here.

Legend:
[1] = Plasma pharmacokinetics of ENT-03S cyclodextrin formulation after subcutaneous injection; assay type: in vivo, rat; settings: male, Sprague-Dawley, rat, plasma, sc, 10 mg/kg, 20% beta-cyclodextrin formulation, SC Dose 10 mg/kg, male SD rats, plasma
Procedure: In this example, ENT-03S was formulated with unmodified beta-cyclodextrin at a concentration of 25 mg/ml ENT-03, and 20% beta-cyclodextrin, pH 7.5, buffered with phosphate.
Male Sprague-Dawley rats were administered the ENT-03-cyclodextrin formulation subcutaneous at a dose of 10 mg/kg. Blood samples were drawn from the tail vein at various times, the concentrations of ENT-03 determined, and PK parameters determined.

[2] = Plasma pharmacokinetics of aqueous ENT-03S solution without cyclodextrin after subcutaneous injection; assay type: in vivo, rat; settings: 2 mg/ml, 10 mg/kg SC, male SD rats
Procedure: The benefits provided by the aminosterol-cyclodextrin formulation disclosed herein can be appreciated by comparing the pharmacokinetics of an aqueous solution of ENT-03S in the absence of cyclodextrin at a concentration of ENT-03S of 2 mg/ml at […].
(§1) The dose chosen was the maximum ENT-03S concentration that could be delivered to the rat without causing visible local tissue necrosis.
The experiment was conducted in male Sprague-Dawley rats following the same protocol as above. The formulation was administered subcutaneously at a dose of 10 mg/kg. The data obtained are shown below in Tables 19 and 20 and FIG. 35.

[3] = Subcutaneous injection into a human subject (local tolerability); assay type: in vivo
Procedure: […] The contents of the syringe were injected subcutaneously in the abdominal area of a human subject creating a visible swelling.

[4] = Visible local tissue necrosis on subcutaneous delivery to the rat; assay type: in vivo; settings: aqueous solution in the absence of cyclodextrin, pH 74
Excerpt: as §1

[5] = male, Sprague-Dawley, in vivo, sc, 10 mg/kg
Procedure: An equal volume of rat bile samples (50 μL) were taken from different animals at different time points following administration of ENT-03S. 50 μL of matrix was mixed with 200 μL of methanol (containing 0.1% formic acid), vortexed for 100 seconds and then centrifuged at 16,000 g for 10 minutes at 4° C. to precipitate proteins. 100 μL of the supernatant was transferred to a new tube and the supernatant diluted with 100 μt, pure water, mixed well and analyzed using UPLC-MS/MS.
The peak area percentages of parent drug and each metabolite were determined by semi-quantitative estimation using the extracted ion chromatogram peak areas of all detected drug-related material in the sample. Metabolites with percentage of peak area>10% are proposed as major metabolites of ENT-03S.
Bile samples were obtained from male rats at various time points following a 10 mg/kg dose of ENT-03S via subcutaneous administration in bile dicut cannulated male SD rats as detailed in Table 10. The samples were transferred on dry ice and stored at −80° C. prior to use
Study design: An equal volume of rat bile samples (50 μL) were taken from different animals at different time points following administration of ENT-03S in study No.: PII-DMPK-ETR-21-001. 50 μL of matrix was mixed with 200 μL of methanol (containing 0.1% formic acid), vortexed for 100 seconds and then centrifuged at 16,000 g for 10 minutes at 4° C. to precipitate proteins. 100 μL of the supernatant was transferred to a new tube and the supernatant diluted with 100 μL pure water, mixed well and analyzed using UPLC-MS/MS.
Sample preparation: For bile samples, an equal volume of samples (50 μL) are taken from different animals at various time points after the administration of each group of samples, and the same group of samples are mixed thoroughly.
Data Analysis: UPLC-MS/MS was used for sample analysis, and was conducted using a DionexUltiMate 3000/Vanquish UHPLC system. For mass spectrometry (MS), all analysis was carried out with a Q-Exactive instrument (Thermo Fisher). A full MS scan was used to trigger the data dependent acquisition (DDA) of MS/MS scan spectra. Compound dependent parameters were optimized by ENT-03S. DDA settings were used to trigger acquisition of MS^2 spectra for ions whose intensity is in top 5 of all, with exclusion of impurity ions (m/z 149.02332, m/z 279.15909, m/z 391.28429 and m/z 445.12003), after 3 occurrences for 10 s. Dynamic exclusion settings: automatic exclusion of the ions which have been taken.
Data Analysis: The analysis was carried out using a thermo Fisher Scientific Q Exactive instrument. Full MS scan was used to trigger the data dependent acquisition (DDA) of MS/MS scan spectra. Compound dependent parameters were optimized by ENT-03S. DDA settings were used to trigger acquisition of MS^2 spectra for ions whose intensity was in the top 5 of all, with exclusion of ions (m/z 149.02332, m/z 279 1 5909, m/z 391.28429 and m/z 445 12003), after 3 occurrences for 10 s. Data was acquired and processed using Xcalibur v4.1 software (Thermo Fisher Scientific) and Compound Discoverer 3.1 (Thermo Fisher Scientific) and Excel (Microsoft 2016).

[6] = 0. 1l of aqueous ENT-03S 2 mg/ml, pH 74, no cyclodextrin

## C[C@H](CCC[C@H](C)C(=O)O)[C@H]1CCC2C3C(CC[C@@]21C)[C@@]1(C)CC[C@H](NCCCNCCCCNCCCN)C[C@@H]1C[C@H]3O (stereo partly drawn) [ENT-03S, (2S,6R)-6-((3S,5R,7R,10S,13R,17R)-3-((3-((4-((3-aminopropyl)amino)butyl)amino)propyl)amino)-7-hydroxy-10,13-dimethylhexadecahydro-1 H-cyclopenta[a]phenanthren-17-yl)-2-methylheptanoic acid]
[1]; individual rats, read-out: AUClast
  AUC(0-t): 716 µg·h/mL
[1]; individual rats, read-out: AUClnf
  AUC: 767 µg·h/mL
[1]; individual rats, read-out: Cmax
  Cmax: 31300 ng/mL
[1]; individual rats, read-out: T1/2 (converted)
  half-life: 19.4 h
[1]; mean, read-out: AUClast Mean
  AUC(0-t): 824 µg·h/mL
[1]; mean, read-out: AUClnf Mean
  AUC: 920 µg·h/mL
[1]; mean, read-out: Cmax Mean
  Cmax: 32400 ng/mL
[1]; mean, read-out: T1/2 Mean (converted)
  half-life: 22.4 h
[2]; 0.25 h, individual rats, 10 mg/kg
  Concentration (ng/ml) Rat 1-3: 1150 ng/mL and 702 ng/mL and 1930 ng/mL
[2]; 0.5 h, individual rats, 10 mg/kg
  Concentration (ng/ml) Rat 1-3: 2300 ng/mL and 1490 ng/mL and 3220 ng/mL
[2]; 1 h, individual rats, 10 mg/kg
  Concentration (ng/ml) Rat 1-3: 4910 ng/mL and 2590 ng/mL and 5570 ng/mL
[2]; 2 h, individual rats, 10 mg/kg
  Concentration (ng/ml) Rat 1-3: 5900 ng/mL and 8620 ng/mL
[2]; 4 h, individual rats, 10 mg/kg
  Concentration (ng/ml) Rat 1-3: 10800 ng/mL and 16100 ng/mL
[2]; 8 h, individual rats, 10 mg/kg
  Concentration (ng/ml) Rat 1-3: 19600 ng/mL and 24800 ng/mL
[2]; 24 h, individual rats, 10 mg/kg
  Concentration (ng/ml) Rat 1-3: 40000 ng/mL and 54300 ng/mL
[2]; individual rats, 10 mg/kg
  AUClast: 559.927 µg·h/mL and 749.498 µg·h/mL
  AUClast/D: 67500 kg·ng·h/mL/mg and 56000 kg·ng·h/mL/mg and 75000 kg·ng·h/mL/mg
  Cmax: 40000 ng/mL and 54300 ng/mL
[2]; mean
  AUClast/D Mean: 66200 kg·ng·h/mL/mg
[2]; male, Sprague-Dawley, rat, plasma, sc, 10 mg/kg, 0.25 h, mean
  concentration at 0.25 h: 1260 ng/mL
[2]; male, Sprague-Dawley, rat, plasma, sc, 10 mg/kg, 0.5 h, mean
  concentration at 0.5 h: 2340 ng/mL
[2]; male, Sprague-Dawley, rat, plasma, sc, 10 mg/kg, 1 h, mean
  concentration at 1 h: 4360 ng/mL
[2]; male, Sprague-Dawley, rat, plasma, sc, 10 mg/kg, 2 h, individual rats, read-out: Concentration (ng/ml) Rat 1-3
  concentration at 2 h: 8380 ng/mL
[2]; male, Sprague-Dawley, rat, plasma, sc, 10 mg/kg, 2 h, mean, read-out: Concentration Mean
  concentration at 2 h: 7630 ng/mL
[2]; male, Sprague-Dawley, rat, plasma, sc, 10 mg/kg, 4 h, individual rats, read-out: Concentration (ng/ml) Rat 1-3
  concentration at 4 h: 14100 ng/mL
[2]; male, Sprague-Dawley, rat, plasma, sc, 10 mg/kg, 4 h, mean, read-out: Concentration Mean
  concentration at 4 h: 13700 ng/mL
[2]; male, Sprague-Dawley, rat, plasma, sc, 10 mg/kg, 8 h, individual rats, read-out: Concentration (ng/ml) Rat 1-3
  concentration at 8 h: 26900 ng/mL
[2]; male, Sprague-Dawley, rat, plasma, sc, 10 mg/kg, 8 h, mean, read-out: Concentration Mean
  concentration at 8 h: 23800 ng/mL
[2]; male, Sprague-Dawley, rat, plasma, sc, 10 mg/kg, 24 h, individual rats, read-out: Concentration (ng/ml) Rat 1-3
  concentration at 24 h: 43300 ng/mL
[2]; male, Sprague-Dawley, rat, plasma, sc, 10 mg/kg, 24 h, mean, read-out: Concentration Mean
  concentration at 24 h: 45900 ng/mL
[2]; male, Sprague-Dawley, rat, plasma, sc, 10 mg/kg, individual rats
  Tmax: 24 h
[2]; male, Sprague-Dawley, rat, plasma, sc, 10 mg/kg, individual rats, read-out: AUClast
  AUC(0-t): 675 µg·h/mL
[2]; male, Sprague-Dawley, rat, plasma, sc, 10 mg/kg, individual rats, read-out: Cmax
  Cmax: 43300 ng/mL
[2]; male, Sprague-Dawley, rat, plasma, sc, 10 mg/kg, mean, read-out: AUClast Mean
  AUC(0-t): 662 µg·h/mL
[2]; male, Sprague-Dawley, rat, plasma, sc, 10 mg/kg, mean, read-out: Cmax Mean
  Cmax: 45900 ng/mL
[3]; [6]
  local swelling, redness, and warmth: lasted for several days
  pain on injection: severe pain within seconds that persisted for several hours
[3]; 1 ml of Example 4 formulation (ENT-03S 50 mg/ml, 25% 2-hydroxypropyl β-cyclodextrin), abdominal area
  disappearance of swelling at injection site: Over the course of an hour, the swelling disappeared
[3]; 1 ml of Example 4 formulation (ENT-03S 50 mg/ml, 25% 2-hydroxypropyl β-cyclodextrin, phosphate, pH 7.4-7.6), abdominal area
  sensation on subcutaneous injection: mild stinging sensation was noted, which disappeared within a few minutes
[4]
  maximum ENT-03S concentration that could be delivered to the rat without causing visible local tissue necrosis: 2 mg/mL
[5]
  Metabolite peak area Rat Bile: 1.70E+07
  Metabolite peak area percentages Rat Bile: 13.77%
